Reference: patent US8212112B2, “Gene participating in low temperature germinability in rice and utilization of the same” (Hokuren Federation of Agricultural Cooperatives, priority 2007, dated 2012)

Columns and labels:
[1] = system: rice seeds (Hayamasari, NILHYqLTG-3-1, Italica Livorno); assay: germination tests under stress conditions (ABA, GA, NaCl, mannitol, temperature); parameters: species or system rice (O. sativa); conditions: for germination response at low NaCl / mannitol concentrations: concentrations lower than 250 mM mannitol and 150 mM NaCl
Procedure: To study the germinability under difference stress conditions, germination tests were carried out according to the method reported by Fujino et al. (2004). For low-temperature stress, seeds were placed on Petri dishes which were then loaded into an incubator. Solutions of plant hormones (ABA and GA), NaCl and mannitol at different concentrations were added to the Petri dishes which were then placed in an incubator. […] (A) is the germination at the optimal temperature of 25° C., (B) is the germination at 13° C., (C) is the sensitivity to NaCl (300 mM), (D) is the sensitivity to mannitol (500 mM), and (E) is the sensitivity to ABA ([…]). Examples of […]-3-1 (closed triangles), and Italica Livorno (open circles) are shown. The numerical values represent the mean±standard deviation (SD) for triplicates. […] In (A), the seeds were incubated in water at 25° C., 15° C., 13° C. and 10° C. In (B), GA (100, 200, 500 μM) was added at 15° C.; in (C), ABA ([…]) was added at 25° C.; in (D), NaCl (150, 250, 300 mM) was added; and in (E), mannitol (250, 500, 600 mM) was added, following which incubation was carried out. The open circles indicate controls. The low concentrations to high concentrations are indicated by, in order, open circles, triangles and squares. […] The open and closed symbols represent, respectively, the presence and absence of […]-3-1 and Italica Livorno are represented by, respectively, circles, triangles, and squares. […] Germination tests were carried out by the method reported by Fujino et al. (2004). For the low temperature stress, seeds on a Petri dish were placed in an incubator. Solutions of plant hormone (ABA and GA) and mannitol at different concentrations were added to the Petri dishes at this time before placing the dishes in the incubator.

qLTG-3-1 gene = qLTG-3-1 gene expression by Northern blot and RT-PCR analysis; parameters: species or system rice (O. sativa); conditions: ABA, NaCl (250 mM), mannitol (500 mM)
Procedure: To carry out an analysis of gene expression, the total RNA was extracted from various organs of rice using RNAiso (TAKARA). The total RNA (0.5 μg) was reverse-transcripted with Rever Tra Ace (TOYOBO) having an Oligo(dT)20 primer, in accordance with the manufacturing guidelines. The PCR reaction was carried out using KOD-plus (TOYOBO). Each PCR reaction (10 μL) included 0.5 μL of cDNA template that had been diluted 5-fold. The specificity of each primer for the target gene was confirmed by PCR product sequencing. For the purpose of Northern blotting analysis, the total RNA (4 μg/sample) was isolated on 2.0% (w/v) agarose-modified formaldehyde gel containing 40 mM MOPS (pH 7.0), 10 mM Na-acetate, 1 mM EDTA and 2% (v/v) formaldehyde.
The RNA was transferred with 20×SSC to a positively charged nylon membrane (Roche Diagnostics). Hybridization and signal detection were carried out by, respectively, a DIG system and CDP-star (Roche Diagnostics). The PCR fragments from the primers 13-5U and 13-5L were used as the probes for Northern blot analysis. The primers and amplification conditions for RT-PCR analysis are shown subsequently in Table 5.
In this example, the expression of the qLTG-3-1 gene was studied. Using RNAiso (TAKARA), the total RNA was extracted from each organ of rice and treated with DNaseI (TAKARA). For Northern blot analysis, the total RNA (4 μg/sample) was separated on 2.0% (w/v) agarose-modified formaldehyde gel containing 40 mM of MOPS (pH 7.0), 10 mM of sodium acetate and 2% (v/v) formaldehyde.
The RNA was blotted with 20×SSC to a positively charged nylon membrane (Roche Diagnostics). Hybridization and signal detection were carried out with a DIG system and CDP-Star (Roche Diagnostics) according to the manufacturing guidelines. The PCR fragments obtained from the primers 13-5U and 13-5L were used as the probes for Northern blot analysis (Table 5).
In this example, the association between qLTG-3-1 expression and seed germination was examined. […]

| Compound | germination response at low NaCl / mannitol concentrations [1] | qLTG-3-1 expression pattern in embryos under stress treatment (qLTG-3-1 gene) | effect of exogenous GA on seed germination ([1]; 15° C., Hayamasari, NILHYqLTG-3-1 and Italica Livorno) | germination response in ABA treatment ([1]; ABA added at 25° C.) |
| --- | --- | --- | --- | --- |
| OC[C@@H](O)[C@@H](O)[C@H](O)[C@H](O)CO [mannitol] | all the varieties showed a delay in germination | delay and suppression of qLTG-3-1 expression |  |  |
| C=C1C[C@]23C[C@@]1(O)CC[C@H]2[C@@]12C=C[C@H](O)[C@@](C)(C(=O)O1)[C@H]2[C@@H]3C(=O)O [GA] |  |  | did not promote seed germination in any of the genotypes |  |
| [Cl-].[Na+] [NaCl] | all the varieties showed a delay in germination | delay and suppression of qLTG-3-1 expression |  |  |
| CC1=CC(=O)CC(C)(C)C1(O)/C=C/C(C)=C\C(=O)O (stereo not shown) [ABA] |  | delay and suppression of qLTG-3-1 expression |  | a delay in germination was observed in both parents |
